From patent US20250059174A1, “Pharmaceutical Compounds and Compositions as C-Kit Kinase Inhibitors” (Enanta Pharmaceuticals, Inc., priority 2023, published 2025)

Tests used:
M-07e cells = assay: M-07e cellular assay (SCF-mediated cell proliferation); type: cell-based; settings: Homo sapiens, 72 hours, CellTiter Glo
In short: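 EC50 values reflect inhibition of SCF-driven proliferation, with SCF at EC90 and a 72 h compound exposure, measured as CellTiter Glo luminescence. Growth is scaled between no-SCF (0%) and untreated (100%) wells.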

[1] = biological target: Recombinant human c-KIT kinase (Homo sapiens (Human), UniProt P10721); assay: c-KIT kinase chemiluminescence assay (ADP-Glo); type: biochemical; settings: ATP 50 μM
Chain of Recombinant human c-KIT kinase (P10721 26-976): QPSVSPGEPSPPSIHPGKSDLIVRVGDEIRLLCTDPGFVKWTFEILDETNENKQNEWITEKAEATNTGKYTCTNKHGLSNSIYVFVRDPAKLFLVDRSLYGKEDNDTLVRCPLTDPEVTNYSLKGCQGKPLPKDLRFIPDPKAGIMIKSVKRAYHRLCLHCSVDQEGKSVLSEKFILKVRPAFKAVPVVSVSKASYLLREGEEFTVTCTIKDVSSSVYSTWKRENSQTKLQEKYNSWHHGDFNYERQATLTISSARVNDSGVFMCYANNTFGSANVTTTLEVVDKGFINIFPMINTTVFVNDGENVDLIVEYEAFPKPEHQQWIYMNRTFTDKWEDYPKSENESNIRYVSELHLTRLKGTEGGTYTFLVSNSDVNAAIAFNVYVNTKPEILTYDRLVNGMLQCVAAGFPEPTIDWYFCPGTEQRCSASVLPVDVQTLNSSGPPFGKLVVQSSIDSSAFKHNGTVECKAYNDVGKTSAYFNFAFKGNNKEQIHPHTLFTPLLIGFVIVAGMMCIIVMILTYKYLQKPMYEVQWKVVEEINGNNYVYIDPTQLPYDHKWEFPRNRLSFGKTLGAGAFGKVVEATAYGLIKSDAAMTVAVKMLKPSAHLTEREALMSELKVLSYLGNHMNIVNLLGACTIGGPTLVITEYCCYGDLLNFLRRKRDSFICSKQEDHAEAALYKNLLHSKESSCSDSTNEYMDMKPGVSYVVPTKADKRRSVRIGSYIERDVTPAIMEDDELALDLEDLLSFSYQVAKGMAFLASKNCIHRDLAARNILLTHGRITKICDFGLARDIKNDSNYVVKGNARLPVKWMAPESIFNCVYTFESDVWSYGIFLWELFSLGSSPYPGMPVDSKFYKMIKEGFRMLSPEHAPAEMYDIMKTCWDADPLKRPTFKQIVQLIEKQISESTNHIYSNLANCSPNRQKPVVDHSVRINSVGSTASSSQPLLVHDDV
In short: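 ADP formed by c-KIT on polyEY over 2 h at RT (after 30 min enzyme preincubation; Tris pH 7.5, MgCl2, BSA, DTT buffer) was detected by ADP-Glo luminescence. IC50 and Hill slope were fitted to control-normalized activity across compound concentrations.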

Compound	EC50 (M-07e cells) [nM]	IC50 [1] [nM]
[2H]C([2H])([2H])c1ccc(-c2noc([C@H]3C[C@@H]3C(F)F)n2)cc1NC(=O)c1cnn2ccc(N3CC4(COC4)C3)cc12 [Example 281-5]	< 100	< 100
Cc1ccc(-c2noc(C34COC(C)(C3)C4)n2)cc1NC(=O)c1cnn2ccc(N3CC4(COC4)C3)cc12 [Example 281-6]	< 100	100 to 1000
Cc1ccc(-c2noc([C@H]3CC3(F)F)n2)cc1NC(=O)c1cnn2ccc(N3CC4(COC4)C3)cc12 [Example 281-7]	< 100	100 to 1000
Cc1ccc(-c2noc(C3CN(CC(F)(F)F)C3)n2)cc1NC(=O)c1cnn2ccc(N3CC4(COC4)C3)cc12 [Example 281-8]	< 100	< 100
Cc1ncc(-c2noc([C@H]3CN(CC(F)(F)F)[C@@H]3C)n2)cc1NC(=O)c1cnn2ccc(N3CC4(C3)CC(O)(C(F)F)C4)cc12 [Example 281-9]	100 to 1000	100 to 1000
Cc1ncc(-c2noc([C@H]3CN(C(=O)C(C)(F)F)[C@@H]3C)n2)cc1NC(=O)c1cnn2ccc(N3CC4(C3)CC(O)(C(F)F)C4)cc12 [Example 281-10]	100 to 1000	100 to 1000
Cc1ncc(-c2noc([C@@H]3CN(C(=O)C4(F)CC4)[C@H]3C)n2)cc1NC(=O)c1cnn2ccc(N3CC4(C3)CC(O)(C(F)F)C4)cc12 [Example 281-11]	100 to 1000	100 to 1000
Cc1ncc(-c2noc([C@@H]3CN(CC(F)(F)F)[C@H]3C)n2)cc1NC(=O)c1cnn2ccc(N3CC4(C3)CC(O)(C(F)F)C4)cc12 [Example 281-12]	100 to 1000	< 100
Cc1ncc(-c2noc([C@@H]3CN(C(=O)C(C)(F)F)[C@H]3C)n2)cc1NC(=O)c1cnn2ccc(N3CC4(C3)CC(O)(C(F)F)C4)cc12 [Example 281-13]	100 to 1000	100 to 1000
COC(=O)N1C[C@H](c2nc(-c3cnc(C)c(NC(=O)c4cnn5ccc(N6CC7(C6)CC(O)(C(F)F)C7)cc45)c3)no2)[C@H]1C [Example 281-14]	100 to 1000	100 to 1000
Cc1ncc(-c2noc([C@H]3CN(C(=O)C4(F)CC4)[C@@H]3C)n2)cc1NC(=O)c1cnn2ccc(N3CC4(C3)CC(O)(C(F)F)C4)cc12 [Example 281-15]	100 to 1000	100 to 1000
Cc1ncc(-c2noc([C@H]3CC34CC4)n2)cc1NC(=O)c1cnn2ccc(N3CC4(C3)CC(O)(C(F)F)C4)cc12 [Example 281-16]	< 100	< 100
COC(=O)N1C[C@@H](c2nc(-c3cnc(C)c(NC(=O)c4cnn5ccc(N6CC7(C6)CC(O)(C(F)F)C7)cc45)c3)no2)[C@@H]1C [Example 281-17]	< 100	100 to 1000
Cc1cc(F)c(-c2noc([C@H]3C[C@@H]3F)n2)cc1NC(=O)c1cnn2ccc(N3CC4(C3)CC(O)(C(F)F)C4)cc12 [Example 281-18]	< 100	< 100
CC(=O)N1CC(c2nc(-c3ccc(C)c(NC(=O)c4cnn5ccc(N6CC7(COC7)C6)cc45)c3)no2)C1 [Example 281-19]	> 1000	100 to 1000
Cc1ccc(-c2noc([C@H]3C[C@@H](OC(F)F)C3)n2)cc1NC(=O)c1cnn2ccc(N3CC4(C3)CC(O)(C(F)F)C4)cc12 [Example 281-20]	< 100	< 100
Cc1ccc(-c2noc([C@H]3C[C@@H](OC(F)(F)F)C3)n2)cc1NC(=O)c1cnn2ccc(N3CC4(C3)CC(O)(C(F)F)C4)cc12 [Example 281-21]	< 100	< 100
Cc1ccc(-c2noc([C@H]3C[C@@H](OC(F)F)C3)n2)cc1NC(=O)c1cnn2ccc(N3CC4(C3)CC(O)(C(F)(F)F)C4)cc12 [Example 281-22]	< 100	< 100
Cc1ccc(-c2noc([C@H]3C[C@@H](OC(F)(F)F)C3)n2)cc1NC(=O)c1cnn2ccc(N3CC4(C3)CC(O)(C(F)(F)F)C4)cc12 [Example 281-23]	< 100	< 100
Cc1cc(F)c(-c2noc([C@H]3C[C@@H]3F)n2)cc1NC(=O)c1cnn2ccc(N3CC4(C3)CN(S(C)(=O)=O)C4)cc12 [Example 281-24]	100 to 1000	< 100
Cc1ccc(-c2noc([C@H]3C[C@@H](C(F)(F)F)C3)n2)cc1NC(=O)c1cnn2ccc(N3CC4(COC4)C3)cc12 [Example 281-25]	< 100	< 100
O=C(Nc1cc(-c2noc([C@H]3C[C@@H]3F)n2)ccc1Cl)c1cnn2ccc(N3CC4(C3)CC(O)(C(F)F)C4)cc12 [Example 281-26]	< 100	100 to 1000
O=C(Nc1cc(-c2noc([C@H]3C[C@@H](C(F)(F)F)C3)n2)ccc1Cl)c1cnn2ccc(N3CC4(C3)CC(O)(C(F)F)C4)cc12 [Example 281-27]	< 100	< 100
O=C(Nc1cc(-c2noc([C@H]3C[C@@H](OC(F)(F)F)C3)n2)ccc1Cl)c1cnn2ccc(N3CC4(C3)CC(O)(C(F)F)C4)cc12 [Example 281-28]	< 100	< 100
COC(=O)N1CC(Cc2nc(-c3ccc(C)c(NC(=O)c4cnn5ccc(N6CC7(COC7)C6)cc45)c3)no2)C1 [Example 281-29]	100 to 1000	100 to 1000

Compound	EC50 (M-07e cells) [nM]	IC50 [1] [nM]
O=C(Nc1cc(-c2noc(C3CC(F)(F)C3)n2)ccc1Cl)c1cnn2ccc(N3CC4(C3)CC(O)(C(F)F)C4)cc12 [Example 281-30]	< 100	< 100
Cc1ccc(-c2noc([C@H]3C[C@](O)(C(F)(F)F)C3)n2)cc1NC(=O)c1cnn2ccc(N3CC4(COC4)C3)cc12 [Example 281-31]	< 100	< 100
Cc1ccc(-c2noc(C3CN(C(=O)[C@H]4C[C@@H]4F)C3)n2)cc1NC(=O)c1cnn2ccc(N3CC4(COC4)C3)cc12 [Example 281-32]	100 to 1000	100 to 1000
Cc1ccc(-c2noc(C3CN(C(=O)C4(F)CC4)C3)n2)cc1NC(=O)c1cnn2ccc(N3CC4(COC4)C3)cc12 [Example 281-33]	100 to 1000	100 to 1000
Cc1ccc(-c2noc(C3CN(C(=O)[C@H]4C[C@@H]4F)C3)n2)cc1NC(=O)c1cnn2ccc(N3CC4(C3)CC(O)(C(F)F)C4)cc12 [Example 281-34]	100 to 1000	100 to 1000
Cc1ccc(-c2noc(C3CN(C(=O)C4(F)CC4)C3)n2)cc1NC(=O)c1cnn2ccc(N3CC4(C3)CC(O)(C(F)F)C4)cc12 [Example 281-35]	< 100	< 100
Cc1ncc(-c2noc([C@H]3C[C@@](C)(O)C3)n2)cc1NC(=O)c1cnn2ccc(N3CC4(C3)CC(O)(C(F)F)C4)cc12 [Example 281-36]	100 to 1000	< 100
Cc1ncc(-c2noc([C@H]3C[C@](O)(C(F)F)C3)n2)cc1NC(=O)c1cnn2ccc(N3CC4(C3)CC(O)(C(F)F)C4)cc12 [Example 281-37]	100 to 1000	100 to 1000
Cc1ncc(-c2noc([C@H]3C[C@](O)(C(F)(F)F)C3)n2)cc1NC(=O)c1cnn2ccc(N3CC4(C3)CC(O)(C(F)F)C4)cc12 [Example 281-38]	< 100	100 to 1000
Cc1ccc(-c2noc(C3CN(CC(F)(F)F)C3)n2)cc1NC(=O)c1cnn2ccc(N3CC4(C3)CC(O)(C(F)F)C4)cc12 [Example 281-39]	< 100	< 100
Cc1cc(F)c(-c2noc([C@H]3C[C@@H]3F)n2)cc1NC(=O)c1cnn2ccc(N3CC4(COC4)C3)cc12 [Example 281-42]	< 100	< 100
COC(=O)N1CC(c2nc(-c3ccc(C)c(NC(=O)c4cnn5ccc(N6CC7(COC7)C6)cc45)c3)no2)C1 [Example 281-43]	< 100	< 100
Cc1ncc(-c2noc([C@H]3C[C@@H](OC(F)(F)F)C3)n2)cc1NC(=O)c1cnn2ccc(N3CC4(C3)CC(O)(C(F)F)C4)cc12 [Example 281-45]	< 100	< 100
Cc1ccc(-c2noc(C3CN(C(=O)C4CC4)C3)n2)cc1NC(=O)c1cnn2ccc(N3CC4(COC4)C3)cc12 [Example 281-46]	100 to 1000	100 to 1000
Cc1ccc(-c2noc(C3CN(C(=O)C(F)(F)F)C3)n2)cc1NC(=O)c1cnn2ccc(N3CC4(COC4)C3)cc12 [Example 281-47]	> 1000	100 to 1000
COC(=O)N1CC(c2nc(-c3cc(NC(=O)c4cnn5ccc(N6CC7(COC7)C6)cc45)c(C)cc3F)no2)C1 [Example 281-48]	100 to 1000	< 100
Cc1ccc(-c2noc(C3CN(C(=O)C4CC(F)(F)C4)C3)n2)cc1NC(=O)c1cnn2ccc(N3CC4(COC4)C3)cc12 [Example 281-49]	> 1000	> 1000
Cc1ccc(-c2noc(C3CN(C(=O)N(C)C4CC4)C3)n2)cc1NC(=O)c1cnn2ccc(N3CC4(COC4)C3)cc12 [Example 281-50]	100 to 1000	100 to 1000
Cc1ccc(-c2noc(C3CN(C(=O)N(C)C)C3)n2)cc1NC(=O)c1cnn2ccc(N3CC4(COC4)C3)cc12 [Example 281-51]	> 1000	> 1000
COC(=O)N1CC(c2nc(-c3cc(NC(=O)c4cnn5ccc(N6CC7(C6)CC(O)(C(F)F)C7)cc45)c(C)cc3F)no2)C1 [Example 281-52]	< 100	< 100
COC(=O)N1CC(c2nc(-c3ccc(C)c(NC(=O)c4cnn5ccc(N6CC7(C6)CC(O)(C(F)F)C7)cc45)c3)no2)C1 [Example 281-53]	< 100	< 100
Cc1c(F)cc(-c2noc([C@H]3C[C@@H]3F)n2)cc1NC(=O)c1cnn2ccc(N3CC4(COC4)C3)cc12 [Example 281-54]	< 100	< 100
CC(=O)N1CCC(c2nc(-c3cnc(C)c(NC(=O)c4cnn5ccc(N6CC7(C6)CC(O)(C(F)F)C7)cc45)c3)no2)C1 (centres unmarked) [Example 281-55]	> 1000	100 to 1000
Cc1ccc(-c2noc(C3CN(C(=O)NC4CC4)C3)n2)cc1NC(=O)c1cnn2ccc(N3CC4(COC4)C3)cc12 [Example 281-56]	> 1000	> 1000
